Assay results published in the supplement of paper PMC11061612.

Legend:
Assay in all cases: combination Emax (second highest fraction inhibited in the dose matrix, 72 h); higher = more inhibition; extreme values may be limits of the assay
[1] = system: NKM-1 (Acute Myeloid Leukemia)
Outline: (§1)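 After 24 hours at 37°C and 5% CO2 in 1536-well plates, cells in DMEM/F12 or RPMI plus 10% FBS received two-drug dose matrices for 72 hours. Viability came from CellTiter-Glo 2.0 luminescence and was scaled as inhibition, anchored at 0 by vehicle wells and at 1 by blank wells. Combination Emax is taken as the second-highest inhibition in the matrix, and Bliss excess as the observed combination effect less EA + EB − EA·EB, with EA and EB the single-agent effects.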

[2] = system: NCI-H810 (Non-Small Cell Lung Carcinoma)
Outline: as §1

[3] = system: SNU-175 (Colorectal Carcinoma)
Outline: as §1

[4] = system: LAMA-84 (Chronic Myelogenous Leukemia)
Outline: as §1

[5] = system: Calu-6 (Non-Small Cell Lung Carcinoma)
Outline: as §1

[6] = system: RT4 (Bladder Carcinoma)
Outline: as §1

[7] = system: NCI-H1623 (Lung Adenocarcinoma)
Outline: as §1

[8] = system: NCI-H1563 (Lung Adenocarcinoma)
Outline: as §1

[9] = system: CML-T1 (Chronic Myelogenous Leukemia)
Outline: as §1

[10] = system: Caov-3 (Ovarian Carcinoma)
Outline: as §1

[11] = system: 786-0 (Kidney Carcinoma)
Outline: as §1

[12] = system: COLO-684 (Endometrial Carcinoma)
Outline: as §1

[13] = system: HTC-C3 (Thyroid Gland Carcinoma)
Outline: as §1

[14] = system: Becker (Low Grade Glioma)
Outline: as §1

[15] = system: SJRH30 (Rhabdomyosarcoma)
Outline: as §1

[16] = system: RL95-2 (Endometrial Carcinoma)
Outline: as §1

[17] = system: NCI-H1155 (Non-Small Cell Lung Carcinoma)
Outline: as §1

[18] = system: FLO-1 (Esophageal Adenocarcinoma)
Outline: as §1

[19] = system: BALL-1 (B-Lymphoblastic Leukemia)
Outline: as §1

[20] = system: KYSE-70 (Esophageal Squamous Cell Carcinoma)
Outline: as §1

| SMILES | combination Emax [1] | combination Emax [2] | combination Emax [3] | combination Emax [4] | combination Emax [5] | combination Emax [6] | combination Emax [7] | combination Emax [8] | combination Emax [9] | combination Emax [10] | combination Emax [11] | combination Emax [12] | combination Emax [13] | combination Emax [14] | combination Emax [15] | combination Emax [16] | combination Emax [17] | combination Emax [18] | combination Emax [19] | combination Emax [20] |
| --- | --- | --- | --- | --- | --- | --- | --- | --- | --- | --- | --- | --- | --- | --- | --- | --- | --- | --- | --- | --- |
| CN(CCO)CC[C@H](CSc1ccccc1)Nc1ccc(S(=O)(=O)NC(=O)c2ccc(N3CCC([C@@H](O)c4ccccc4-c4ccc(Cl)cc4)CC3)cc2)cc1S(=O)(=O)C(F)(F)F [AZD4320] + Cn1cnc2c(F)c(Nc3ccc(Br)cc3Cl)c(C(=O)NOCCO)cc21 [Selumetinib] (first compound max 1 µM, 7x7, partner max 3 µM) | 1 | 0.615 | 0.865 | 0.99 | 0.837 | 0.601 | 0.859 | 0.198 | 0.996 | 0.803 | 0.307 | 0.355 | 0.707 | 0.259 | 0.487 | 0.667 | 0.95 | 0.453 | 1 | 0.229 |
| CC1(C)CCC(CN2CCN(c3ccc(C(=O)NS(=O)(=O)c4ccc(NCC5CCOCC5)c([N+](=O)[O-])c4)c(Oc4cnc5[nH]ccc5c4)c3)CC2)=C(c2ccc(Cl)cc2)C1 [Venetoclax] + Cn1cnc2c(F)c(Nc3ccc(Br)cc3Cl)c(C(=O)NOCCO)cc21 [Selumetinib] (first compound max 1 µM, 7x7, partner max 3 µM) | 0.975 | 0.0631 | 0.313 | 0.707 | 0.431 | 0.304 | 0.256 | 0.242 | 0.957 | 0.603 | 0.16 | 0.0813 | 0.508 | 0.215 | 0.1 | 0.332 | 0.371 | 0.319 | 1 | 0.19 |
| Cc1c2c(nn1C)CSCc1cc(n(C)n1)CSc1cc(c3ccccc3c1)OCCCc1c(C(=O)O)n(C)c3c-2c(Cl)ccc13 [AZD5991] + C1CN(CCC1(C(=O)N[C@@H](CCO)C2=CC=C(C=C2)Cl)N)C3=NC=NC4=C3C=CN4 [Capivasertib] (first compound max 1 µM, 7x7, partner max 3 µM) | 0.999 | 0.286 | 0.492 | 0.189 | 0.192 | 0.22 | 1 | 0.774 | 0.0638 | 0.307 | 0.44 | 0.599 | 0.179 | 0.308 | 0.669 | 1 | 0.525 | 0.347 | 0.65 | 0.246 |
| Cc1cc2ncnn2cc1Nc1ncc2c(n1)n(C1CCOCC1)c(=O)n2C [AZD7648] + C[C@@H]1COCCN1C2=NC(=NC(=C2)C3(CC3)[S@](=N)(=O)C)C4=C5C=CNC5=NC=C4 [AZD6738] (first compound max 10 µM, 7x7, partner max 10 µM) | 0.839 | 0.697 | 0.537 | 0.947 | 0.741 | 0.488 | 0.588 | 0.498 | 0.936 | 0.773 | 0.694 | 0.764 | 0.802 | 0.607 | 0.801 | 0.592 | 0.746 | 0.668 | 0.986 | 0.414 |
| Cc1c2c(nn1C)CSCc1cc(n(C)n1)CSc1cc(c3ccccc3c1)OCCCc1c(C(=O)O)n(C)c3c-2c(Cl)ccc13 [AZD5991] + C[C@@H]1COCCN1C2=NC(=NC(=C2)C3(CC3)[S@](=N)(=O)C)C4=C5C=CNC5=NC=C4 [AZD6738] (first compound max 1 µM, 7x7, partner max 10 µM) | 0.995 | 0.904 | 0.862 | 0.966 | 0.822 | 0.536 | 0.997 | 0.774 | 0.96 | 0.763 | 0.748 | 0.741 | 0.686 | 0.632 | 0.939 | 1 | 0.849 | 0.686 | 1 | 0.379 |
| C[C@@H]1COCCN1c1cc(C2([S@](C)(=N)=O)CC2)nc(-c2ccnc3[nH]ccc23)n1 [AZD6738] + O=C(c1cc(Cc2n[nH]c(=O)c3ccccc23)ccc1F)N1CCN(C(=O)C2CC2)CC1 [Olaparib] (first compound max 10 µM, 7x7, partner max 10 µM) | 0.902 | 0.766 | 0.532 | 0.961 | 0.684 | 0.443 | 0.693 | 0.223 | 0.966 | 0.699 | 0.679 | 0.685 | 0.83 | 0.601 | 0.619 | 0.641 | 0.825 | 0.75 | 0.983 | 0.45 |
